Tests used:
FFAR4 = target: T1, FFAR4 (Homo sapiens, UniProt Q5NUL3); experiment: IP accumulation assay in transiently transfected COS7 cells, FFAR4; format: cell-based
T1 sequence (Q5NUL3 1-361): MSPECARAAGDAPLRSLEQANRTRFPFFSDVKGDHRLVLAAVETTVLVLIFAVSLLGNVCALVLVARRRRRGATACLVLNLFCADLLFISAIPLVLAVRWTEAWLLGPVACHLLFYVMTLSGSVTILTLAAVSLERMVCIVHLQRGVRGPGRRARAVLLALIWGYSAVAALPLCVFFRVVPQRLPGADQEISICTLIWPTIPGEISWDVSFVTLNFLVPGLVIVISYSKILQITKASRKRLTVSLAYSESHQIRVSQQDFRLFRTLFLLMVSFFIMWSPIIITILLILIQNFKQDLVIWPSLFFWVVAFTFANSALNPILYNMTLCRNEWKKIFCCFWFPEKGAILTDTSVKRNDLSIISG

FFAR1 = FFAR1 (Homo sapiens, UniProt O14842); experiment: IP accumulation assay in transiently transfected COS7 cells, FFAR1; format: cell-based; conditions: for reduction of potency on FFAR1 / improved potency on FFAR1: range for the group; for improved potency on FFAR1: as compared to the unsubstituted phenyl 54
FFAR1, sequence (O14842 whole entry): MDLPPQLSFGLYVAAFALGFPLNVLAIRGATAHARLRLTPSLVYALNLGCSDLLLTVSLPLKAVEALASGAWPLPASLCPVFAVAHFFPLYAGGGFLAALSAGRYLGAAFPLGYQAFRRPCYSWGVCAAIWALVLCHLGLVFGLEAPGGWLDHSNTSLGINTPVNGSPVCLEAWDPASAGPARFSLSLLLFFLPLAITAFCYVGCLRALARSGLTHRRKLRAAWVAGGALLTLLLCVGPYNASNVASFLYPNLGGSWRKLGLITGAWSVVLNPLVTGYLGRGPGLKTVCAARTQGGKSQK

FFAR1 K259A = experiment: Mutagenesis, IP accumulation, FFAR1 K259A mutant; format: cell-based, human
FFAR1 A83F = FFAR1 A83F (Homo sapiens, UniProt O14842, A83F); experiment: Mutagenesis, IP accumulation, FFAR1 A83F mutant; format: cell-based
FFAR1 A83F, sequence (O14842 whole entry A83F): as the sequence (O14842 whole entry) above, with A83F counted along it

[1] = tested on: FFAR1 mutants (Y12, E65, A66, K259, L262); experiment: Mutagenesis of the extracellular binding site, IP accumulation; format: cell-based, human

Cc1cc(OCc2nc(N)nc(NC3(Cc4cccc(Cl)c4)CC3)n2)cc(N2CCCC2=O)c1 [compound 92]
activity on FFAR4 (FFAR4): loss of activity on FFAR4

Cc1cc(OCc2nc(N)nc(NCC(c3cccc(Cl)c3)N3CCCC3)n2)cc(N2CCCC2=O)c1 (centres unmarked) [compound 94]
activity on FFAR4 (FFAR4): loss of activity on FFAR4

Cc1ccc(Nc2nc(N)nc(COc3cc(OC(F)(F)F)cc(N4CCCC4=O)c3)n2)cc1Cl [compound 46]
selectivity for FFAR4 over FFAR1 (FFAR4): selective

Cc1cc(OCc2nc(N)nc(NCCc3cc(C)ccc3F)n2)cc(N2CCCC2=O)c1 [compound 76]
selectivity for FFAR1 over FFAR4 (FFAR1): highly selective for FFAR1

Cc1cc(OCc2nc(N)nc(NCCc3c(C)cccc3C)n2)cc(N2CCCC2=O)c1 [compound 87]
reduction of potency on FFAR1 (FFAR1; versus compound 54): 2−3 fold

COc1ccc(Cl)cc1CCNc1nc(N)nc(COc2cc(C)cc(N3CCCC3=O)c2)n1 [compound 86]
reduction of potency on FFAR1 (FFAR1; versus compound 54): 2−3 fold

Cc1cc(=O)oc2cc(OCc3nc(N)nc(Nc4ccc(O)cc4)n3)ccc12 [compound 18]
activity on FFAR1 (FFAR1): inactive

Cc1cc(=O)oc2cc(OCc3nc(N)nc(Nc4ccc(C5CC5)cc4)n3)ccc12 [compound 7]
activity on FFAR4 (FFAR4): entirely inactive on FFAR4

Cc1cc(OCc2nc(N)nc(NCCc3ccc(Cl)cc3Cl)n2)cc(N2CCCC2=O)c1 [compound 84]
reduction of potency on FFAR1 (FFAR1; versus compound 54): 2−3 fold

Cc1ccc(Nc2nc(N)nc(COc3cc(N4CCCC4=O)cc(C(F)(F)F)c3)n2)cc1Cl [compound 38]
selectivity for FFAR1 over FFAR4 (FFAR1): selective

COc1ccc(F)c(-c2ccc(COc3ccc4c(c3)[C@]3(CC4)C[C@H]3C(=O)O)cc2[C@@H]2CCCC2(C)C)c1 [AM-5262]
change in efficacy, K259A versus wild-type (FFAR1 K259A): −32% | impact of A83F mutation on activity (FFAR1 A83F): none | effect of extracellular-site mutations on activity [1]: no effect on compound potency

Cc1ccc(Nc2nc(N)nc(COc3ccc4c(C)cc(=O)oc4c3)n2)cc1C [compound 13]
activity on FFAR4 (FFAR4): entirely inactive on FFAR4

Cc1cc(OCc2nc(N)nc(NCCc3cccc(C(F)(F)F)c3)n2)cc(N2CCCC2=O)c1 [compound 61]
improved potency on FFAR1 (FFAR1): 2–8 fold

COc1cccc(CCNc2nc(N)nc(COc3cc(C)cc(N4CCCC4=O)c3)n2)c1 [compound 60]
improved potency on FFAR1 (FFAR1): 2–8 fold

Cc1cc(=O)oc2cc(OCc3nc(N)nc(Nc4cccc(O)c4)n3)ccc12 [compound 17]
activity on FFAR1 (FFAR1): inactive

Cc1cc(OCc2nc(N)nc(NCCc3ccc(C)cc3C)n2)cc(N2CCCC2=O)c1 [compound 85]
reduction of potency on FFAR1 (FFAR1; versus compound 54): 2−3 fold

Cc1cc(OCc2nc(N)nc(NCCc3ccccc3F)n2)cc(N2CCCC2=O)c1 [compound 70]
selectivity for FFAR1 over FFAR4 (FFAR1): highly selective for FFAR1

Cc1cc(OCc2nc(N)nc(NCCc3cc(F)ccc3F)n2)cc(N2CCCC2=O)c1 [compound 75]
loss of efficacy on FFAR1 (FFAR1; versus compound 54): −26%

Cc1cc(OCc2nc(N)nc(NCCc3cccc(Cl)c3)n2)cc(N2CCCC2=O)c1 [compound 58]
improved potency on FFAR1 (FFAR1): 2–8 fold

Cc1cc(OCc2nc(N)nc(NCCc3cc(Cl)ccc3Cl)n2)cc(N2CCCC2=O)c1 [compound 83]
effect of extracellular-site mutations on activity [1]: profound effect

Cc1cc(OCc2nc(N)nc(NCCc3ccccc3)n2)cc(N2CCCC2=O)c1 [compound 54]
increase of efficacy on FFAR1 (FFAR1; as compared to compound 43): 44%

Cc1cc(OCc2nc(N)nc(NCC(c3c(F)cccc3F)N(C)C)n2)cc(N2CCCC2=O)c1 (centres unmarked) [compound 93]
activity on FFAR4 (FFAR4): loss of activity on FFAR4

Cc1cc(OCc2nc(N)nc(NCCc3cccc(OC(F)F)c3)n2)cc(N2CCCC2=O)c1 [compound 62]
improved potency on FFAR1 (FFAR1): 2–8 fold

Cc1cc(OCc2nc(N)nc(NCC3(c4cccc(Cl)c4)CC3)n2)cc(N2CCCC2=O)c1 [compound 90]
activity on FFAR4 (FFAR4): loss of activity on FFAR4

Cc1cccc(CCNc2nc(N)nc(COc3cc(C)cc(N4CCCC4=O)c3)n2)c1 [compound 59]
improved potency on FFAR1 (FFAR1): 2–8 fold

Cc1ccc(Nc2nc(N)nc(COc3cc(Cl)cc(N4CCCC4=O)c3)n2)cc1Cl [compound 42]
gain of potency on FFAR1 (FFAR1; versus compound 28): 5 fold

Cc1ccc(Nc2nc(N)nc(COc3cccc(N4CCCC4=O)c3)n2)cc1Cl [compound 28]
loss of potency on FFAR1 (FFAR1; versus 4-methylchroman-2-one compound 11): ~6 fold

Cc1cc(OCc2nc(N)nc(NCCc3cccc4c3OC(F)(F)O4)n2)cc(N2CCCC2=O)c1 [compound 101]
selectivity for FFAR1 over FFAR4 (FFAR1): highly FFAR1-selective

Cc1cc(OCc2nc(N)nc(NCCc3ccccc3N3CCOCC3)n2)cc(N2CCCC2=O)c1 [compound 74]
activity on FFAR1 (FFAR1): entirely inactive | selectivity for FFAR4 over FFAR1 (FFAR4): FFAR4-selective

— publication PMC9743428 (ACS Medicinal Chemistry Letters, 2022)
